The results in this text go back to ChEMBL document CHEMBL3045467, “Major alkaloidal constituent from Impatiens niamniamensis seeds as antihyperglycemic agent” (2011).

Each structure is given as a SMILES string.

Common to all, as to format: functional
What all share (design): scale not given: the % may be the effect or the level left

Assay [1] has as its system Rattus norvegicus. Kind of assay: Antihyperglycemic activity in albino Rattus norvegicus Sprague-Dawley (rat) streptozotocin-induced diabetic model assessed as reduction of AUC of blood glucose level at 100 mg/kg, po after 5 hr.
The test system of assay [2] is Rattus norvegicus. Kind of assay: Antihyperglycemic activity in albino Rattus norvegicus Sprague-Dawley (rat) streptozotocin-induced diabetic model assessed as reduction of AUC of blood glucose level at 100 mg/kg, po after 24 hr.
Assay [3] has as its system Rattus norvegicus. Kind of assay: Antihyperglycemic activity in albino Rattus norvegicus Sprague-Dawley (rat) streptozotocin-induced diabetic model assessed as reduction of AUC of blood glucose level at 50 mg/kg, po after 24 hr.
For assay [4], the system named is Rattus norvegicus. Kind of assay: Antihyperglycemic activity in albino Rattus norvegicus Sprague-Dawley (rat) streptozotocin-induced diabetic model assessed as reduction of AUC of blood glucose level at 50 mg/kg, po after 5 hr.

For the compound `CN(C)C(=N)NC(=N)N` [METFORMIN], the Activity in the assay on Rattus norvegicus [1] came to 26%; in the assay with Rattus norvegicus [2] it was 24.9%.

As for `C[N+](C)(C)[C@@H](Cc1c[nH]c2ccccc12)C(=O)[O-]` [Hypaphorine], the Activity is recorded as 20.4% with Rattus norvegicus [3] and 27.8% in the assay on Rattus norvegicus [4].
